The subject of experiment [1] is Bacillus anthracis spores. Further details: species or system Hartley guinea pigs. Particulars: guinea pig, in vivo.
In experiment [2] the test system is Bacillus anthracis Ames. Further details: species or system Swiss-Webster mice. Particulars: mouse, in vivo.

Take `O=C(O)c1cn(C2CC2)c2cc(N3CCNCC3)c(F)cc2c1=O` [ciprofloxacin]: in experiment [1], the ED50 dose is listed as 3 mg/day and the “protection at low dose 1.12 mg/day” value is recorded as “non-protective”.
For AVP-21D9, the “protection, antibody alone” value in experiment [1] (ip) is “provided protection and delayed the mean time of death”. This compound also displayed an animals protected in experiment [2] of 40%.

Source of the values: patent publication US7442373B2 (priority 2003, dated 2008).
